The target in this experiment is T1, human PAH with the R408W mutation (Homo sapiens, UniProt P00439, R408W).
T1 construct: expressed in transfected cells
T1 sequence (P00439 1-452 R408W): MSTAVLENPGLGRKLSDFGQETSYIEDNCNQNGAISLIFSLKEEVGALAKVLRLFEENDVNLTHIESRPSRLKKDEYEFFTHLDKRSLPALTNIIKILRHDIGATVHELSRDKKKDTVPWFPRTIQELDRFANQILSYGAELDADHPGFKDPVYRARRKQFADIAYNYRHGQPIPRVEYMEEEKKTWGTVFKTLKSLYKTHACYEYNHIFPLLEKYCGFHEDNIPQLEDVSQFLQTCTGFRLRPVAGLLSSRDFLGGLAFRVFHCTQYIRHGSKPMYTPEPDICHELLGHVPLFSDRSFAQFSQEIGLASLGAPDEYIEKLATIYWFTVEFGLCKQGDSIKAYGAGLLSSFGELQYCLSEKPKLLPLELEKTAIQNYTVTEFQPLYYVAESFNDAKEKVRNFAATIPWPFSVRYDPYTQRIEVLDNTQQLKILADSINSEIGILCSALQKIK
The experiment can be described thus: Cell Based Phenylalanine Flux Assay. To be noted: A375 cells expressing human R408W PAH, 13C-Tyrosine by LC-MS, average where tested multiple times, read-out: AC50.

Molecules are shown by their SMILES. Like-named read-outs stand apart in the source and are kept apart here.

The text below walks through data of patent US20250171438A1 (Agios Pharmaceuticals, Inc., priority 2022, published 2025).

For `Cc1nc(C(C)(C)C)oc1C(=O)N1CCc2[nH]cnc2[C@@H]1c1nc2c(F)cccc2s1` [Example 1434, (R)-(2-(tert-butyl)-4-methyloxazol-5-yl)(4-(4-fluorobenzo[d]thiazol-2-yl)-6,7-dihydro-1H-imidazo[4,5-c]pyridin-5(4H)-yl)methanone], under “24 hrs compound incubation”, the AC50 lay within 1000 to 5000 nM.

With `O=C(N1CCc2[nH]cnc2[C@@H]1c1nc2c(F)cccc2s1)C(F)(F)C1(O)CCC1` [Example 1656, (R)-2,2-difluoro-1-(4-(4-fluorobenzo[d]thiazol-2-yl)-6,7-dihydro-1H-imidazo[4,5-c]pyridin-5(4H)-yl)-2-(1-hydroxycyclobutyl)ethanone], the AC50 (24 hrs compound incubation) was 1000 to 5000 nM.

Consider `O=C(c1cnn2c(Br)cccc12)N1CCc2[nH]cnc2[C@H]1c1nc2ccccc2s1` [Example 1069], for which, where the note is “24 hrs compound incubation”, the AC50 was in the range of 500 to 1000 nM.

Consider `CC(C)(O)Cc1nc(C(F)F)c(C(=O)N2CCc3[nH]cnc3[C@H]2c2nc3c(F)cccc3s2)o1` [Example 2061], for which the AC50 (24 hrs compound incubation) is below 500 nM.

As to `Cc1cccc2sc([C@@H]3c4nc[nH]c4CCN3C(=O)c3cnco3)nc12` [Example 2013, (S)-(4-(4-methylbenzo[d]thiazol-2-yl)-6,7-dihydro-1H-imidazo[4,5-c]pyridin-5(4H)-yl)(oxazol-5-yl)methanone], the AC50 (24 hrs compound incubation) is 500 to 1000 nM.

Turning to `O=C(c1cn(CC(F)F)nc1Cl)N1CCc2[nH]cnc2[C@H]1c1nc2c(F)cccc2s1` [Example 1981, (S)-(3-chloro-1-(2,2-difluoroethyl)-1H-pyrazol-4-yl)(4-(4-fluorobenzo[d]thiazol-2-yl)-6,7-dihydro-1H-imidazo[4,5-c]pyridin-5(4H)-yl)methanone], the AC50 (24 hrs compound incubation) was below 500 nM.

Take `CN(C)Cc1ccc2c(C(=O)N3CCc4[nH]cnc4[C@@H]3c3nc4c(F)cccc4s3)cnn2c1` [Example 1620, (R)-(6-((dimethylamino)methyl)pyrazolo[1,5-a]pyridin-3-yl)(4-(4-fluorobenzo[d]thiazol-2-yl)-6,7-dihydro-1H-imidazo[4,5-c]pyridin-5(4H)-yl)methanone]: the AC50 (24 hrs compound incubation) is above 5000 nM.

Consider `CNC(C)(C)c1nc(C)c(C(=O)N2CCc3[nH]cnc3C2c2nc3c(F)cccc3s2)o1` (centres unmarked), for which the concentration at half-maximal activity (AC50) (24 hrs with compound) was above 5000 nM.

Turning to `O=C(c1cnn2c(Br)cccc12)N1CCc2[nH]cnc2[C@@H]1c1nc2ccccc2s1` [Example 1070, (R)-(4-(benzo[d]thiazol-2-yl)-6,7-dihydro-1H-imidazo[4,5-c]pyridin-5(4H)-yl)(7-bromopyrazolo[1,5-a]pyridin-3-yl)methanone], the AC50 (24 hrs compound incubation) lay in the range of 1000 to 5000 nM.

Consider `O=C(c1ncco1)N1CCc2[nH]cnc2C1c1nc2cc(F)ccc2s1` (centres unmarked), for which, under “24 hrs with compound”, the AC50 was in the range of 1000 to 5000 nM.

As for `Cc1nnc(CC(=O)N2CCc3[nH]cnc3[C@@H]2c2nc3c(F)cccc3s2)s1` (single isomer, unassigned), where the note is “24 hrs with compound”, the AC50 was above 5000 nM.

On to `O=C(c1nnc(C2CC2)o1)N1CCc2[nH]cnc2[C@@H]1c1nc2c(F)cccc2s1` [Example 1444, (R)-(5-cyclopropyl-1,3,4-oxadiazol-2-yl)(4-(4-fluorobenzo[d]thiazol-2-yl)-6,7-dihydro-1H-imidazo[4,5-c]pyridin-5(4H)-yl)methanone], for which the AC50 (24 hrs compound incubation) lay within 1000 to 5000 nM.

On to `Cc1csc(C(=O)N2CCc3[nH]cnc3[C@H]2c2nc3ccccc3s2)n1` [Example 1044], for which the AC50 (24 hrs compound incubation) lay within 1000 to 5000 nM.

`CC(C)(O)c1nc(C(F)(F)F)c(C(=O)N2CCc3[nH]cnc3[C@H]2c2nc3c(F)cccc3s2)o1` [Example 1541, (S)-(4-(4-fluorobenzo[d]thiazol-2-yl)-6,7-dihydro-1H-imidazo[4,5-c]pyridin-5(4H)-yl)(2-(2-hydroxypropan-2-yl)-4-(trifluoromethyl)oxazol-5-yl)methanone]: the AC50 (24 hrs compound incubation) is below 500 nM.

As to `O=C(c1oc(C2CC2)nc1C(F)F)N1CCc2[nH]cnc2[C@H]1c1nc2ccccc2s1` [Example 1621], the AC50 (24 hrs compound incubation) was below 500 nM.

With `O=C(Cc1nccs1)N1CCc2[nH]cnc2C1c1nc2ccc(F)cc2s1` (centres unmarked), the AC50 (24 hrs with compound) is above 5000 nM.

Turning to `O=C(c1oc(COC(F)(F)F)nc1C(F)F)N1CCc2[nH]cnc2[C@H]1c1nc2ccccc2s1` [Example 1831], the AC50 (24 hrs compound incubation) is below 500 nM.

With `O=C(C1CC1)N1CCc2[nH]cnc2[C@@H]1c1nc2ccc(Br)cc2[nH]1` [Example 951, (R)-(4-(6-bromo-1H-benzo[d]imidazol-2-yl)-6,7-dihydro-1H-imidazo[4,5-c]pyridin-5(4H)-yl)(cyclopropyl)methanone], the AC50 (24 hrs compound incubation) is above 5000 nM.

On to `O=C(CCc1nccs1)N1CCc2[nH]cnc2[C@@H]1c1nc2cccc(F)c2s1` [Example 1036, (R)-1-(4-(7-fluorobenzo[d]thiazol-2-yl)-6,7-dihydro-1H-imidazo[4,5-c]pyridin-5(4H)-yl)-3-(thiazol-2-yl)propan-1-one], for which, where the note is “24 hrs compound incubation”, the AC50 is 1000 to 5000 nM.

As for `O=C(c1cnc(-c2ccc(F)cc2)o1)N1CCc2[nH]cnc2[C@@H]1c1nc2ccccc2s1` [Example 2118, (R)-(4-(benzo[d]thiazol-2-yl)-6,7-dihydro-1H-imidazo[4,5-c]pyridin-5(4H)-yl)(2-(4-fluorophenyl)oxazol-5-yl)methanone], the half-maximal activity concentration (AC50) (24 hrs compound incubation) lay in the range of 1000 to 5000 nM.

Take `CC1(C(=O)N2CCc3[nH]cnc3[C@H]2c2nc3ccccc3s2)CC1(F)F` (single isomer, unassigned) [Example 1291]: the AC50 (24 hrs compound incubation) is 500 to 1000 nM.

In the case of `O=C(c1conc1C(F)(F)F)N1CCc2[nH]cnc2[C@H]1c1nc2c(F)cccc2s1` [Example 1635, (S)-(4-(4-fluorobenzo[d]thiazol-2-yl)-6,7-dihydro-1H-imidazo[4,5-c]pyridin-5(4H)-yl)(3-(trifluoromethyl)isoxazol-4-yl)methanone], where the note is “24 hrs compound incubation”, the AC50 was below 500 nM.

In the case of `Cc1nc(CCC2CC2)oc1C(=O)N1CCCc2[nH]cnc2C1c1nc2ccccc2s1` (centres unmarked), the AC50 (24 hrs with compound) is above 5000 nM.

Turning to `COc1ccn2ncc(C(=O)N3CCc4[nH]cnc4C3c3nc4ccc(Cl)cc4[nH]3)c2c1` (centres unmarked), for the setting “24 hrs with compound”, the AC50 is above 5000 nM.

As to `CC[C@H](O)c1nc(C(F)F)c(C(=O)N2CCc3[nH]cnc3[C@H]2c2nc3c(F)cccc3s2)o1` [Example 2063], the AC50 (24 hrs compound incubation) was below 500 nM.

For the compound `O=C(N1CCC(c2ccccc2)C1)N1CCc2[nH]cnc2C1c1nc2ccccc2s1` (centres unmarked), the AC50 (24 hrs with compound) is above 5000 nM.

As for `O=C(c1nnc(-c2cnn(C(F)F)c2)o1)N1CCc2[nH]cnc2[C@@H]1c1nc2ccccc2s1` [Example 1778, (R)-(4-(benzo[d]thiazol-2-yl)-6,7-dihydro-1H-imidazo[4,5-c]pyridin-5(4H)-yl)(5-(1-(difluoromethyl)-1H-pyrazol-4-yl)-1,3,4-oxadiazol-2-yl)methanone], the AC50 (24 hrs compound incubation) is above 5000 nM.

Regarding `CC(C)(O)c1cc(C(=O)N2CCc3[nH]cnc3C2c2nc3ccccc3s2)no1` (centres unmarked), under “24 hrs with compound”, the AC50 is 1000 to 5000 nM.

Take `N#Cc1ccn2ncc(C(=O)N3CCc4[nH]cnc4[C@H]3c3nc4ccc(F)cc4s3)c2c1` [Example 1155, (S)-3-(4-(6-fluorobenzo[d]thiazol-2-yl)-4,5,6,7-tetrahydro-1H-imidazo[4,5-c]pyridine-5-carbonyl)pyrazolo[1,5-a]pyridine-5-carbonitrile]: the AC50 (24 hrs compound incubation) was in the range of 500 to 1000 nM.

Regarding `O=C(c1cnn(CC(F)(F)F)c1C(F)F)N1CCc2[nH]cnc2[C@H]1c1nc2ccccc2s1` [Example 1973], the AC50 (24 hrs compound incubation) is below 500 nM.

For the compound `O=C(c1cnn2ccccc12)N1CCc2[nH]cnc2[C@H]1c1nc2ccc(Br)cc2[nH]1` [Example 940, (S)-(4-(6-bromo-1H-benzo[d]imidazol-2-yl)-6,7-dihydro-1H-imidazo[4,5-c]pyridin-5(4H)-yl)(pyrazolo[1,5-a]pyridin-3-yl)methanone], for the setting “24 hrs compound incubation”, the AC50 fell in the range of 500 to 1000 nM.

For `O=C(CCC1CC1)N1CCc2[nH]cnc2[C@@H]1c1nc2cccc(F)c2s1` [Example 1134, (R)-3-cyclopropyl-1-(4-(7-fluorobenzo[d]thiazol-2-yl)-6,7-dihydro-1H-imidazo[4,5-c]pyridin-5(4H)-yl)propan-1-one], the AC50 (24 hrs compound incubation) was 1000 to 5000 nM.

With `O=C(c1nnc(-c2cnn(CC(F)F)c2)o1)N1CCc2[nH]cnc2[C@H]1c1nc2c(F)cccc2s1` [Example 1882, (S)-(5-(1-(2,2-difluoroethyl)-1H-pyrazol-4-yl)-1,3,4-oxadiazol-2-yl)(4-(4-fluorobenzo[d]thiazol-2-yl)-6,7-dihydro-1H-imidazo[4,5-c]pyridin-5(4H)-yl)methanone], the AC50 (24 hrs compound incubation) was below 500 nM.

Consider `O=C(c1oc(N2CCOCC2)nc1C(F)F)N1CCc2[nH]cnc2[C@H]1c1nc2c(F)cccc2s1` [Example 2025, (S)-(4-(difluoromethyl)-2-morpholinooxazol-5-yl)(4-(4-fluorobenzo[d]thiazol-2-yl)-6,7-dihydro-1H-imidazo[4,5-c]pyridin-5(4H)-yl)methanone], for which the AC50 (24 hrs compound incubation) is below 500 nM.

In the case of `O=C(c1oc(C2CC2)nc1C(F)(F)F)N1CCc2[nH]cnc2[C@H]1c1nc2ccccc2s1` [Example 2163], the AC50 (24 hrs compound incubation) was below 500 nM.

Regarding `O=C(C1CN(c2ccc(F)cn2)C1)N1CCc2[nH]cnc2[C@H]1c1nc2ccccc2s1` [Example 1837], under “24 hrs compound incubation”, the AC50 fell in the range of 1000 to 5000 nM.

For `O=C(c1cnc(-c2c(F)cccc2F)s1)N1CCc2[nH]cnc2[C@H]1c1nc2ccccc2s1` [Example 1509], the AC50 (24 hrs compound incubation) was below 500 nM.

For the compound `O=C(c1oc(CCN2CC(F)C2)nc1C(F)(F)F)N1CCc2[nH]cnc2[C@@H]1c1nc2ccccc2s1` [Example 1576, (R)-(4-(benzo[d]thiazol-2-yl)-6,7-dihydro-1H-imidazo[4,5-c]pyridin-5(4H)-yl)(2-(2-(3-fluoroazetidin-1-yl)ethyl)-4-(trifluoromethyl)oxazol-5-yl)methanone], the AC50 (24 hrs compound incubation) was below 500 nM.

What is called AC50 is the concentration giving half of the maximal activity seen.
